Results on 16 compounds are retold here after PMC6021032, “Antimycobacterial activity of nitrogen heterocycles derivatives: 7-(pyridine-4-yl)-indolizine derivatives. Part VII^8–12” (Journal of Enzyme Inhibition and Medicinal Chemistry, 2017).

Values after ≈ are worked out from the molar mass of the structure shown.

For data set [1], the system named is Mycobacterium tuberculosis H37Rv. Kind of data set: Primary screen (Cycle 1): MIC, IC50, IC90 under aerobic conditions. The data set is classed as cell-based.
Data set [2] can be described thus: In vitro microsomal stability assay. The settings on record: human, 1 μM, 37 °C. An excerpt:
The stability of compound is expressed as a function of time[41]^,[42]
3.4. In vitro Microsomal Stability Assay
compound to detect NADPH-free degradation. Verapamil and dextromethorphan were
included as control compounds.

For data set [3], the system named is THP-1 cell line infected with Mtb. Kind of data set: Intracellular activity assay, luminescence. It counts as cell-based, Mycobacterium tuberculosis. The settings on record: Mycobacterium tuberculosis, Mtb-infected THP-1 cells, 72 h; for IC50: read-out: IC50 intracell; for IC90: read-out: IC90 intracell. The procedure:
Since the overall efficacy of any anti TB drug will be improved by its ability to traffic into the macrophage phagosome containing replicating bacteria, we evaluated the intracellular activity of compounds[24]. This was measured by using THP-1 cell line infected with Mtb. Infected cells were exposed to compounds for 72 h and viable bacterial counts were measured using luminescence as a measure of intracellular growth.
Assay (Promega) which uses ATP as an indicator of cell viability. Relative luminescent units (RLU) were measured using a Biotek Synergy 4 plate reader. The dose response curve was fitted using the Levenberg–Marquardt algorithm. The IC50 was defined as the compound […]
Intracellular Activity Assay
The activity of compounds against intracellular bacteria was determined by measuring viability in infected THP-1 cell after 3 days in the presence of test compounds. Compounds were prepared as 10-point three-fold serial dilutions in DMSO. The highest concentration of […]
THP-1 cells were cultured in complete RPMI and differentiated into macrophage-like cells using 80 nM PMA overnight at 37°C, 5% CO2. THP-1 cells were infected with a luminescent strain of H37Rv (which constitutively expresses luxABCDE) at a multiplicity of infection of 1 and incubated overnight at 37°C, 5% CO2. Infected cells were recovered using Accutase/EDTA solution, washed twice with PBS to remove extracellular bacteria and seeded into assay pates. Compound dilutions were added to a final DMSO concentration of 0.5%.
Assay plates were incubated for 72 h at 37°C, 5% CO2. Each run included isoniazid as a control. Relative luminescent units (RLU) were measured using a Biotek Synergy 2 plate reader. The dose response curve was fitted using the Levenberg–Marquardt algorithm. The […]
inhibition of growth respectively.
3. Cycle 3 – Absorption, distribution, metabolism, excretion and toxicity (ADMET)
3.1. Plasma Protein Binding Assay
Compounds were added to human plasma at a fixed concentration of 5 µM. The mixture was dialyzed in a RED device (Rapid Equilibrium Dialysis, Pierce) against PBS and incubated on an orbital shaker for 4 h at 37 °C. Aliquots from plasma and PBS sides were collected; an equal volume of PBS was added to the plasma sample, and an equal volume of plasma was added to the PBS sample. Three volumes of methanol (containing the internal binding standard propranolol) was added to precipitate the proteins and release the compound.
Each compound was tested in duplicate. Samples were centrifuged, the supernatant was […]

The nature of data set [4]: Cytotoxicity, THP-1 cell viability (CellTiter-Glo). To be noted: human.
The test system of data set [5] is Mycobacterium avium. Kind of data set: MIC against nontuberculous mycobacteria (Alamar blue). It counts as cell-based. The settings on record: M. avium.
In data set [6] the test system is M. tuberculosis H37Rv. The data set is described as follows: Cycle 2 repeat of MIC, IC50, IC90 under aerobic conditions (lower starting concentrations). The settings on record: Mycobacterium tuberculosis, revaluation; for IC50 / IC90: aerobic; for MIC: repeated at lower starting concentrations, read-out: MIC aerobic condition. It counts as cell-based, Mycobacterium tuberculosis.

Data set [7] has as its system Mycobacterium abscessus. Kind of data set: MIC, IC50, IC90 against nontuberculous mycobacteria (OD590). The settings on record: Mycobacteroides abscessus, M. abscessus; for MIC: read-out: MIC. The data set is classed as cell-based.
Data set [8] relates to Mtb H37Rv. The data set is described as follows: LORA parallel plates, oxygen-deprived bacteria incubated under aerobic conditions (normal oxygen). The data set is classed as cell-based, Mycobacterium tuberculosis. The settings on record: Mycobacterium tuberculosis, H37RV; for MIC: 120 h, oxygen-deprived bacteria, aerobic 5 d.
For data set [9], the system named is human liver cells (HepG2). Kind of data set: HepG2 cytotoxicity (CellTiter-Glo). It counts as cell-based. The settings on record: read-out: IC50 (50% loss of viability), 72 h.
Data set [10] is described as follows: in vitro. To be noted: human.
The test system of data set [11] is Mtb. Further details: method as in PMID 24268596. The settings on record: reported anti-TB activity of compound 1; cited from earlier work.
[12] abbreviates: Mycobacterium tuberculosis, M. tuberculosis H37Rv, aerobic conditions, primary screen.
The mark [13] stands for this setting: M. tuberculosis H37Rv, aerobic conditions, primary screen.
[14] abbreviates: MIC value taken from the first MIC assay.

Turning to `CCOC(=O)c1cc(C(=O)c2ccc(Br)cc2)n2ccc(-c3cc[n+](CC(=O)c4ccc(C)cc4)cc3)cc12.[Br-]` [Compound 6f, 4-(3-(4-Bromobenzoyl)-1-(ethoxycarbonyl)indolizine-7-yl)-1-(2-oxo-2-(p-tolyl)ethyl)pyridin-1-ium bromide], the melting point is 283 to 284 °C. In [1] (setting [12]), this compound came in with an IC50 of 13 µM, a concentration for an effect of 90% (IC90) of 19 µM and an MIC of 20 µM.
Consider `CCOC(=O)c1cc(C(=O)c2ccccc2)n2ccc(-c3cc[n+](CC(=O)c4cccc(OC)c4)cc3)cc12` [Compound 6b, 4-(3-Benzoyl-1-(ethoxycarbonyl)indolizine-7-yl)-1-(2-(3-methoxyphenyl)-2-oxoethyl)pyridin-1-ium], for which the melting point is 255 to 256 °C. Also, in data set [1] (setting [12]), the concentration for half-maximal inhibition (IC50) came to 39 µM, the IC90 was greater than 50 µM and the MIC is greater than 50 µM.
Turning to `CCOC(=O)c1cc(C(=O)c2ccc(C)cc2)n2ccc(-c3cc[n+](CC(=O)c4ccc([N+](=O)[O-])cc4)cc3)cc12` [Compound 6k], in data set [1] (setting [12]), it took 200 µM to reach half-maximal inhibition (IC50), the IC90 is greater than 200 µM and the MIC was greater than 200 µM.
In data set [1] (setting [13]), “4-[3-(4-Bromophenyl)-1-(ethoxycarbonyl)indolizine-7-yl)-1-(2-(4-methoxyphenyl)-2-oxoethyl)pyridine-1-ium bromide [Compound 6g]” came in with an IC50 of 35 µM, an IC90 of 46 µM and an MIC of 50 µM.
As for `CCOC(=O)c1cc(C(=O)c2ccc(OC)cc2)n2ccc(-c3cc[n+](CC(=O)c4ccc(Br)cc4)cc3)cc12` [Compound 6l], in data set [1] (setting [12]), the IC50 is greater than 200 µM, the concentration for an effect of 90% (IC90) was greater than 200 µM and the MIC is greater than 200 µM.
As to `COc1ccc2c(c1)[C@]13CCCC[C@@H]1[C@H](C2)N(C)CC3` [Dextromethorphan, reference compound], the microsomal CLint at 1 μM in data set [2] (s9, NADPH-dependent CLint) is 24.3 µL/min/mg; in data set [2] (s9, NADPH-free CLint) it was less than 12.8 µL/min/mg. The half-life at 1 μM in data set [2] (s9, NADPH-dependent T1/2, Human) is 94.9 min; in [2] (s9, NADPH-free T1/2, Human) it was greater than 180 min.
Regarding `NNC(=O)c1ccncc1` [Isoniazid, reference compound], in data set [3], the IC50 came out at 0.18 µM and the IC90 is 0.27 µM.
In [1] (setting [12]), `CCOC(=O)c1cc(C(=O)c2ccc(Br)cc2)n2ccc(-c3cc[n+](CC(=O)c4ccc(Cl)cc4)cc3)cc12` [Compound 6j] displayed an IC50 greater than 200 µM, an IC90 greater than 200 µM and a minimal inhibitory concentration (MIC) greater than 200 µM.
The compound `CCOC(=O)c1cc(C(=O)c2ccccc2)n2ccc(-c3cc[n+](CC(=O)c4ccc(C)cc4)cc3)cc12.[Br-]` [Compound 6a, 4-(3-Benzoyl-1-(ethoxycarbonyl)indolizine-7-yl)-1-(2-oxo-2-(p-tolyl)ethyl)pyridin-1-ium bromide] yielded a 50% inhibitory concentration (IC50) at 3 days in data set [4] of 2900 nM. Moreover, the minimum inhibitory concentration (MIC) in data set [5] was 50 µM; in [5] (Mycobacterium avium), 50 µM; in data set [6], 22 µM; in [7], greater than 200 µM; in data set [8], 100 µM; in data set [1] (setting [14]) it was 14 µM. This compound gave a minimum inhibitory concentration (MIC) in [1] (setting [12]) of 14 µM. Moreover, the half-inhibitory concentration (IC50) in data set [6] is 12 µM; in [7], 24 µM; in data set [8], 9.2 µM; in data set [3], 5.2 µM; in [1] (setting [12]) it was 13 µM. In addition, the 90% effect concentration (IC90) in [6] came out at 23 µM; in data set [7], 37 µM; in data set [8], 42 µM; in [3], 15 µM; in [1] (setting [12]), 15 µM.
Take `CN[C@@H]1C[C@H]2O[C@@](C)([C@@H]1OC)n1c3ccccc3c3c4c(c5c6ccccc6n2c5c31)C(=O)NC4` [Staurosporine, reference compound]: the IC50 in [9] amounted to 8.6 nM.
In the case of `CCOC(=O)c1cc(C(=O)c2ccc(Cl)cc2)n2ccc(-c3cc[n+](CC(=O)c4cccc(OC)c4)cc3)cc12` [Compound 6d, 4-(3-(4-Chlorobenzoyl)-1-(ethoxycarbonyl)indolizine-7-yl)-1-(2-(3-methoxyphenyl)-2-oxoethyl)pyridin-1-ium], the melting point was 252 to 254 °C. The same compound returned an MIC in [5] (Mycobacterium avium) of 200 µM. Also, in [6], the concentration for half-maximal inhibition (IC50) stood at 12 µM, the 90% effect level (IC90) was put at 17 µM and the minimal inhibitory concentration (MIC) stood at 14 µM. Besides, in data set [7], inhibition was half-maximal at 81 µM (IC50), the 90% effect level (IC90) was put at 150 µM and the MIC was greater than 200 µM. Besides, in [8], the IC50 came to 17 µM, the IC90 was found to be 27 µM and 43 µM was the least that counted as inhibitory (MIC). In data set [3], the IC50 was found to be 11 µM and the IC90 was greater than 50 µM. Moreover, the IC50 at 3 days in data set [10] came to 3.9 µM. This compound also had a minimum inhibitory concentration (MIC) in data set [1] (setting [14]) of 15 µM. In data set [1] (setting [12]), this compound came in with an IC50 of 14 µM, an IC90 of 16 µM and a minimal inhibitory concentration (MIC) of 15 µM.
The compound `CCOC(=O)c1cc(C(=O)c2ccc(Br)cc2)n2ccc(-c3cc[n+](CC(=O)c4cccc(OC)c4)cc3)cc12` [Compound 6h, 4-(3-(4-Bromobenzoyl)-1-(ethoxycarbonyl)indolizine-7-yl)-1-(2-(3-methoxyphenyl)-2-oxoethyl)pyridin-1-ium] gave a melting point of 256 to 259 °C. In addition, inhibition of growth in [5] (Mycobacterium avium) (MIC) required 200 µM. Besides, in data set [6], 15 µM corresponded to half-maximal inhibition (IC50), the IC90 came out at 26 µM and the minimum inhibitory concentration (MIC) is 27 µM. In [7], the IC50 is greater than 200 µM, the IC90 was greater than 200 µM and the minimal inhibitory concentration (MIC) is greater than 200 µM. In data set [8], this compound yielded a 50% inhibitory concentration (IC50) of 16 µM, an IC90 of 24 µM and an MIC of 38 µM. Moreover, in [3], the IC50 turned out to be 13 µM and the IC90 is 43 µM. This compound registered a 50% inhibitory concentration (IC50) at 3 days in data set [10] of 3.8 µM. This compound also gave a minimal inhibitory concentration (MIC) in data set [1] (setting [14]) of 14 µM. In [1] (setting [12]), this compound yielded an IC50 of 13 µM, an IC90 of 14 µM and an MIC of 14 µM.
Take `CO[C@H]1/C=C/O[C@@]2(C)Oc3c(C)c(O)c4c(O)c(c(/C=N/N5CCN(C)CC5)c(O)c4c3C2=O)NC(=O)/C(C)=C\C=C\[C@H](C)[C@H](O)[C@@H](C)[C@@H](O)[C@@H](C)[C@H](OC(C)=O)[C@@H]1C` [Rifampicin, reference compound]: the MIC in [5] (Mycobacterium avium) was 0.098 µM (≈ 0.0806 µg/mL); in data set [6] it was 0.0071 µM (≈ 0.00584 µg/mL); in data set [7] it was 3.6 µM (≈ 2.96 µg/mL); in [8], 0.021 µM (≈ 0.0173 µg/mL); in data set [1] (setting [12]), 0.0065 µM (≈ 0.00535 µg/mL). In addition, the IC50 in data set [6] worked out at 0.0043 µM; in data set [7] it was 2.3 µM; in [8], 0.0057 µM; in data set [1] (setting [12]) it was 0.0036 µM. Besides, the IC90 is 0.0092 µM in [6], 3.6 µM in [7], 0.011 µM in [8] and 0.0071 µM in data set [1] (setting [12]).
With `Cc1ncc([N+](=O)[O-])n1CCO` [Metronidazole, reference compound], in data set [8], the half-maximal inhibitory concentration (IC50) is greater than 200 µM, the IC90 is greater than 200 µM and the MIC was greater than 200 µM.
In data set [1] (setting [12]), `CCOC(=O)c1cc(C(=O)c2ccc(Cl)cc2)n2ccc(-c3cc[n+](CC(=O)c4ccc(F)cc4)cc3)cc12` [Compound 6e, 4-(3-(4-Chlorobenzoyl)-1-(ethoxycarbonyl)indolizine-7-yl)-1-(2-(4-fluorophenyl)-2-oxoethyl)pyridin-1-ium bromide] yielded an IC50 greater than 100 µM, an IC90 greater than 100 µM and an MIC greater than 100 µM.
`CCOC(=O)c1cc(C(=O)c2ccccc2)n2ccc(-c3cc[n+](CC(=O)c4ccc(OC)cc4)cc3)cc12` [Compound 1]: in data set [11], the IC90 is 13.1 µM and the minimal inhibitory concentration (MIC) is 3.91 µM.
